Source: patent publication US20140018384A1, “QUINOLINONE DERIVATIVES FOR USE IN THE TREATMENT OF AN AUTOIMMUNE DISEASE AND/OR AN INFLAMMATORY DISEASE” (PRONOXIS AB, priority 2011, published 2014)

test system: PLB-985 cells; assay: ROS production (isoluminol/HRP luminescence) in PLB-985 cells, Biological Example 1; assay type: cell-based; conditions: 25 μM compound vs. DMSO, setup C, read-out: Activity C (fold increase of NADPH activity compared to control)
Method: To cells (HL-60 or PLB-985) in HBSS medium was added compound (25 or 50 μM), isoluminol and Horse Radish Peroxidase, fraction II. Luminescence was measured for 10-30 minutes and the area under the […] curve was divided by that from a control experiment to give the activity expressed as fold change.
Each assay indicated below was performed at a different site, at a different time, by different personnel and/or using different cell lines, concentrations and controls. The cell line, concentration of example compound and control used in respect of each assay were as indicated below. The values obtained from these different setups (each using an otherwise identical assay) are given as Activity A, B, C, D or E in Table 5 below. The values are expressed as fold increase of NADPH activity in the presence of the relevant of compound (as indicated below) compared to the relevant control (as indicated below).
Activity A: HL-60 cells; 50 μM compound vs. blank Activity B: PLB-985 cells; 25 μM compound vs. blank Activity C, D and E: PLB-985 cells; 25 μM compound vs. DMSO

| Compound | fold induction at 25 µM |
| --- | --- |
| COc1ccc(NC(=O)Cn2cc(C(=O)c3ccco3)c(=O)c3cc4c(cc32)OCO4)cc1 [Example 26, N-p-Anisyl-2-[3-(2-furoyl)-6,7-methylenedioxy-4-oxo-1-quinolinyl]acetamide] | 14.9 |
| O=C(Cn1cc(C(=O)c2ccc3ccccc3c2)c(=O)c2cc3c(cc21)OCO3)Nc1ccc(Cl)cn1 [Example 28, N-(5-Chloro-2-pyridyl)-2-[6,7-methylenedioxy-3-(2-naphthoyl)-4-oxo-1-quinolinyl]-acetamide] | 16.1 |
| COc1ccc(C(=O)c2cn(CC(=O)Nc3ccc(Cl)cc3)c3cc4c(cc3c2=O)OCO4)cc1 [Example 29, 2-[3-p-Anisoyl-6,7-methylenedioxy-4-oxo-1-quinolinyl]-N-(4-chlorophenyl)acetamide] | 55 |
| COc1ccc(NC(=O)Cn2cc(C(=O)c3ccc(C)c(C)c3)c(=O)c3cc4c(cc32)OCO4)c(OC)c1 [Example 30, N-(2,4-Dimethoxyphenyl)-2-[3-(3,4-dimethylbenzoyl)-6,7-methylenedioxy-4-oxo-1-quinolinyl]acetamide] | 28.2 |
| COc1ccc(NC(=O)Cn2cc(C(=O)c3ccc(F)cc3)c(=O)c3cc4c(cc32)OCO4)cc1OC [Example 31, N-(3,4-Dimethoxyphenyl)-2-[3-(4-fluorobenzoyl)-6,7-methylenedioxy-4-oxo-1-quinolinyl]acetamide] | 49.5 |
| O=C(Cn1cc(C(=O)c2cccc(F)c2)c(=O)c2cc3c(cc21)OCO3)Nc1ccc(Cl)cc1 [Example 32, N-(4-Chlorophenyl)-2-[3-(3-fluorobenzoyl)-6,7-methylenedioxy-4-oxo-1-quinolinyl]acetamide] | 47.8 |
| O=C(Cn1cc(C(=O)c2ccc(F)cc2)c(=O)c2cc3c(cc21)OCO3)Nc1ccc(Cl)cn1 [Example 33, N-(5-Chloro-2-pyridyl)-2-[3-(4-fluorobenzoyl)-6,7-methylenedioxy-4-oxo-1-quinolinyl]acetamide] | 45.6 |
| O=C(Cn1cc(C(=O)c2cccnc2)c(=O)c2cc3c(cc21)OCO3)Nc1ccc(Cl)cn1 [Example 34, N-(5-Chloro-2-pyridyl)-2-(6,7-methylenedioxy-3-nicotinoyl-4-oxo-1-quinolinyl)acetamide] | 27.5 |
| Cc1ccc(C(=O)c2cn(CC(=O)Nc3ccc(N(C)C)cc3)c3cc4c(cc3c2=O)OCO4)cc1C [Example 35] | 6.3 |
| O=C(Cn1cc(C(=O)c2ccc(Cl)cc2)c(=O)c2cc3c(cc21)OCO3)Nc1ccc(Cl)cn1 [Example 36, 2-[3-(4-Chlorobenzoyl)-6,7-methylenedioxy-4-oxo-1-quinolinyl]-N-(5-chloro-2-pyridyl)acetamide] | 46.4 |

same assay, conditions: 25 μM compound vs. DMSO, setup D, read-out: Activity D (fold increase of NADPH activity compared to control)

| Compound | fold induction at 25 µM |
| --- | --- |
| COc1ccc2c(c1)c(=O)c(C(=O)c1ccc3ccccc3c1)cn2CC(=O)Nc1ccc(Cl)cc1 [Example 16, N-(4-Chlorophenyl)-2-[6-methoxy-3-(2-naphthoyl)-4-oxo-1-quinolinyl]acetamide] | 35.4 |
| COc1cc2c(=O)c(C(=O)c3ccc4ccccc4c3)cn(CC(=O)Nc3ccc(Cl)cc3)c2cc1OC [Example 17, N-(4-Chlorophenyl)-2-[6,7-dimethoxy-3-(2-naphthoyl)-4-oxo-1-quinolinyl]acetamide] | 16.3 |
| COc1ccc2c(=O)c(C(=O)c3ccc4ccccc4c3)cn(CC(=O)Nc3ccc(Cl)cc3)c2c1 [Example 18, N-(4-Chlorophenyl)-2-[7-methoxy-3-(2-naphthoyl)-4-oxo-1-quinolinyl]acetamide] | 12.6 |
| COc1cc2c(=O)c(C(=O)c3ccc4ccccc4c3)cn(CC(=O)Nc3ccc(Cl)cc3)c2cc1C [Example 19, N-(4-Chlorophenyl)-2-[6-methoxy-7-methyl-3-(2-naphthoyl)-4-oxo-1-quinolinyl]acetamide] | 10.9 |
| COc1cc2c(cc1C)c(=O)c(C(=O)c1ccc3ccccc3c1)cn2CC(=O)Nc1ccc(Cl)cc1 [Example 20, N-(4-Chlorophenyl)-2-[7-methoxy-6-methyl-3-(2-naphthoyl)-4-oxo-1-quinolinyl]acetamide] | 6.3 |
| COc1ccc2c(n1)c(=O)c(C(=O)c1ccc3ccccc3c1)cn2CC(=O)Nc1ccc(Cl)cc1 [Example 21, N-(4-Chlorophenyl)-2-[6-methoxy-3-(2-naphthoyl)-4-oxo-(1,5-naphthyridin-1-yl)]acetamide] | 68.7 |

same assay, conditions: 25 μM compound vs. DMSO, setup E, read-out: Activity E (fold increase of NADPH activity compared to control)

| Compound | fold induction at 25 µM |
| --- | --- |
| Cc1ccc(NC(=O)Cn2cc(C(=O)c3ccc4ccccc4c3)c(=O)c3cc4c(cc32)OCO4)cc1 [Example 2, 2-[6,7-Methylenedioxy-3-(2-naphthoyl)-4-oxo-1-quinolinyl]-N-p-tolylacetamide] | 10 |
| COc1cccc(NC(=O)Cn2cc(C(=O)c3ccc4ccccc4c3)c(=O)c3cc4c(cc32)OCO4)c1 [Example 3, N-m-Anisyl-2-[6,7-methylenedioxy-3-(2-naphthoyl)-4-oxo-1-quinolinyl]acetamide] | 1.8 |
| O=C(Cn1cc(C(=O)c2ccc3ccccc3c2)c(=O)c2cc3c(cc21)OCO3)Nc1cccc(Cl)c1 [Example 4, N-(3-chlorophenyl)-2-[6,7-methylenedioxy-3-(2-naphthoyl)-4-oxo-1-quinolinyl]acetamide] | 3.4 |
| O=C(Cn1cc(C(=O)c2ccc3ccccc3c2)c(=O)c2cc3c(cc21)OCO3)Nc1ccc(OC(F)(F)F)cc1 [Example 5, 2-[6,7-Methylenedioxy-3-(2-naphthoyl)-4-oxo-1-quinolinyl]-N-(4-trifluoromethoxyphenyl)acetamide] | 4.3 |
| O=C(Cn1cc(C(=O)c2ccc3ccccc3c2)c(=O)c2cc3c(cc21)OCO3)Nc1ccc(Cl)cc1Cl [Example 6, N-(2,4-DichlorophenyI)-2-[6,7-methylenedioxy-3-(2-naphthoyl)-4-oxo-1-quinolinyl]acetamide] | 1.7 |
| O=C(Cn1cc(C(=O)c2ccc3ccccc3c2)c(=O)c2cc3c(cc21)OCO3)Nc1ccc(Cl)c(Cl)c1 [Example 7, N-(3,4-Dichlorophenyl)-2-[6,7-methylenedioxy-3-(2-naphthoyl)-4-oxo-1-quinolinyl]acetamide] | 2.2 |
| O=C(Cn1cc(C(=O)c2ccc3ccccc3c2)c(=O)c2cc3c(cc21)OCO3)Nc1cccc(OC(F)(F)F)c1 [Example 8, 2-[6,7-Methylenedioxy-3-(2-naphthoyI)-4-oxo-1-quinolinyl]-N-(3-trifluoromethoxyphenyl)acetamide] | 1.3 |
| CCCc1ccc(NC(=O)Cn2cc(C(=O)c3ccc4ccccc4c3)c(=O)c3cc4c(cc32)OCO4)cc1 [Example 9, 2-[6,7-Methylenedioxy-3-(2-naphthoyl)-4-oxo-1-quinolinyl]-N-(4-propylphenyl)acetamide] | 2 |
| O=C(Cn1cc(C(=O)c2ccc3ccccc3c2)c(=O)c2cc3c(cc21)OCO3)Nc1ccccc1Cl [Example 10, N-(2-ChlorophenyI)-2-[6,7-methylenedioxy-3-(2-naphthoyl)-4-oxo-1-quinolinyl]acetamide] | 1.7 |
| O=C(Cn1cc(C(=O)c2ccc3ccccc3c2)c(=O)c2cc3c(cc21)OCO3)Nc1ccc(C(F)(F)F)cc1 [Example 11, 2-[6,7-Methylenedioxy-3-(2-naphthoyl)-4-oxo-1-quinolinyl]-N-(4-trifluoromethylphenyl)acetamide] | 8.8 |
| O=C(Cn1cc(C(=O)c2ccc3ccccc3c2)c(=O)c2cc3c(cc21)OCO3)Nc1cccnc1 [Example 12, 2-[6,7-Methylenedioxy-3-(2-naphthoyl)-4-oxo-1-quinolinyl]-N-(3-pyridyl)acetamide] | 3.2 |
| CN(C(=O)Cn1cc(C(=O)c2ccc3ccccc3c2)c(=O)c2cc3c(cc21)OCO3)c1ccc(Cl)cc1 [Example 15, N-(4-Chlorophenyl)-N-methyl-2-[6,7-methylenedioxy-3-(2-naphthoyl)-4-oxo-1-quinolinyl]acetamide] | 4.3 |
| COc1ccc2c(c1)c(=O)c(C(=O)c1ccc3ccccc3c1)cn2CC(=O)Nc1ccc(Cl)cc1 [Example 16, N-(4-Chlorophenyl)-2-[6-methoxy-3-(2-naphthoyl)-4-oxo-1-quinolinyl]acetamide] | 5.9 |
| COc1ccc2c(n1)c(=O)c(C(=O)c1ccc3ccccc3c1)cn2CC(=O)Nc1ccc(Cl)cc1 [Example 21, N-(4-Chlorophenyl)-2-[6-methoxy-3-(2-naphthoyl)-4-oxo-(1,5-naphthyridin-1-yl)]acetamide] | 9.2 |
| O=C(Cn1cc(C(=O)c2ccc3ccccc3c2)c(=O)c2nc(O)ccc21)Nc1ccc(Cl)cc1 [Example 22, N-(4-Chlorophenyl)-2-[6-hydroxy-3-(2-naphthoyl)-4-oxo-(1,5-naphthyridin-1-yl)]-acetamide] | 20.2 |
| COc1cc2c(cn1)c(=O)c(C(=O)c1ccc3ccccc3c1)cn2CC(=O)Nc1ccc(Cl)cc1 [Example 23, N-(4-Chlorophenyl)-2-[7-methoxy-3-(2-naphthoyl)-4-oxo-(1,6-naphthyridin-1-yl)]-acetamide] | 2.1 |
| COc1cc2c(=O)c(C(=O)c3ccc4ccccc4c3)cn(CC(=O)Nc3ccc(Cl)cc3)c2cn1 [Example 24, N-(4-Chlorophenyl)-2-[6-methoxy-3-(2-naphthoyl)-4-oxo-(1,7-naphthyridin-1-yl)]-acetamide] | 1.7 |
| COc1cccc2c1c(=O)c(C(=O)c1ccc(F)cc1)cn2CC(=O)Nc1ccc(Cl)cc1 [Example 25] | 34.6 |
| COc1ccc(NC(=O)Cn2cc(C(=O)c3ccc(C)c(C)c3)c(=O)c3cc4c(cc32)OCO4)c(OC)c1 [Example 30, N-(2,4-Dimethoxyphenyl)-2-[3-(3,4-dimethylbenzoyl)-6,7-methylenedioxy-4-oxo-1-quinolinyl]acetamide] | 4.1 |
| COc1ccc2c(c1)c(=O)c(C(=O)c1ccc(F)cc1)cn2CC(=O)Nc1ccc(C)cc1 [Example 37, 2-[3-(4-fluorobenzoyl)-6-methoxy-4-oxo-1-quinolinyl]-N-p-tolylacetamide] | 8.4 |
| COc1ccc2c(c1)c(=O)c(C(=O)c1ccc(F)cc1)cn2CC(=O)Nc1ccc(C(F)(F)F)cc1 [Example 38, 2-[3-(4-Fluorobenzoyl)-6-methoxy-4-oxo-1-quinolinyl]-N-(4-trifluoromethylphenyl)acetamide] | 7 |
